Measured values reported in ChEMBL document CHEMBL1201862, “PubChem BioAssay data set” (2004).
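Exposure lasted 48 hours, with cells grown in 96-well plates and compounds tested at five concentrations. Here, GI50 denotes the concentration required for 50% inhibition of growth.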 The source made the active and inactive calls. Cut-off read from the data, not from the text of the source: active = GI50 up to about 1.1 µM and inactive = higher.

What was measured:
Assay in all cases: NCI-60 cell line screen, 48 h
OVCAR-5 = tested on: OVCAR-5
NCI-H522 = tested on: NCI-H522
SW-620 = tested on: SW-620
COLO 205 = tested on: COLO 205
786-0 = tested on: 786-0
T47D = tested on: T47D
CAKI-1 = tested on: CAKI-1
A498 = tested on: A498
U-251 = tested on: U-251
LOX IMVI = tested on: LOX IMVI
PC-3 = tested on: PC-3
K562 = tested on: K562
SF-268 = tested on: SF-268
DU-145 = tested on: DU-145
MCF7 = tested on: MCF7
Hs-578T = tested on: Hs-578T
NCI/ADR-RES = tested on: NCI/ADR-RES
SK-MEL-2 = tested on: SK-MEL-2
Malme-3M = tested on: Malme-3M

SMILES | GI50 (OVCAR-5) | GI50 (NCI-H522) | GI50 (SW-620) | GI50 (COLO 205) | GI50 (786-0) | GI50 (T47D) | GI50 (CAKI-1) | GI50 (A498) | GI50 (U-251) | GI50 (LOX IMVI) | GI50 (PC-3) | GI50 (K562) | GI50 (SF-268) | GI50 (DU-145) | GI50 (MCF7) | GI50 (Hs-578T) | GI50 (NCI/ADR-RES) | GI50 (SK-MEL-2) | GI50 (Malme-3M)
CC/C=C\C/C=C\C/C=C\CCCCCCCC(=O)OC(COC(=O)CCCCCCCCCCCCCCCCC)COC1OC(CO)C(O)C(O)C1O (stereo not drawn) | > 25 µM (inactive) | 9.53 µM (inactive) | > 25 µM (inactive) | > 25 µM (inactive) | > 25 µM (inactive) | > 25 µM (inactive) | > 25 µM (inactive) | > 25 µM (inactive) | > 25 µM (inactive) | > 25 µM (inactive) | 22.8 µM (inactive) | 18.6 µM (inactive) | > 25 µM (inactive) | > 25 µM (inactive) | > 25 µM (inactive) | 2.59 µM (inactive) | 23.6 µM (inactive) | > 25 µM (inactive) | –
CC(C)OC(=O)c1ccc(NCC2=CC(=O)C=CC2=O)cc1Cl | 22.2 µM (inactive) | 1.02 µM (active) | 11.5 µM (inactive) | 4.07 µM (inactive) | 14.1 µM (inactive) | 2.3 µM (inactive) | 2.19 µM (inactive) | 16.3 µM (inactive) | 16.9 µM (inactive) | 10.5 µM (inactive) | 8.3 µM (inactive) | 2.73 µM (inactive) | 12.1 µM (inactive) | 18.3 µM (inactive) | 14.9 µM (inactive) | 23.3 µM (inactive) | 7.93 µM (inactive) | 31.7 µM (inactive) | –
CC1=Cc2ccc(C)cc2C(=O)C1=O | 18.3 µM (inactive) | 1.64 µM (inactive) | 2.81 µM (inactive) | 6.07 µM (inactive) | 1.85 µM (inactive) | 1.82 µM (inactive) | 5.07 µM (inactive) | 22.4 µM (inactive) | 20.4 µM (inactive) | 4.66 µM (inactive) | 15.8 µM (inactive) | 2.07 µM (inactive) | 8.67 µM (inactive) | 16.8 µM (inactive) | 6.97 µM (inactive) | 13.9 µM (inactive) | 18.8 µM (inactive) | 19.9 µM (inactive) | –
N#Cc1nc2ccccc2nc1N1CCN(c2ccc([N+](=O)[O-])cc2)CC1 | > 100 µM (inactive) | > 100 µM (inactive) | > 100 µM (inactive) | > 100 µM (inactive) | > 100 µM (inactive) | > 100 µM (inactive) | > 100 µM (inactive) | > 100 µM (inactive) | > 100 µM (inactive) | > 100 µM (inactive) | > 100 µM (inactive) | – | > 100 µM (inactive) | > 100 µM (inactive) | > 100 µM (inactive) | > 100 µM (inactive) | > 100 µM (inactive) | > 100 µM (inactive) | > 100 µM (inactive)
COc1ccc(C(OCC2OC(n3ccc(Oc4c(F)c(F)c(F)c(F)c4F)nc3=O)CC2OP(OCCC#N)N(C(C)C)C(C)C)(c2ccccc2)c2ccc(OC)cc2)cc1 (stereo not drawn) | > 100 µM (inactive) | > 100 µM (inactive) | > 100 µM (inactive) | > 100 µM (inactive) | > 100 µM (inactive) | > 100 µM (inactive) | > 100 µM (inactive) | > 100 µM (inactive) | > 100 µM (inactive) | > 100 µM (inactive) | > 100 µM (inactive) | > 100 µM (inactive) | > 100 µM (inactive) | > 100 µM (inactive) | > 100 µM (inactive) | > 100 µM (inactive) | > 100 µM (inactive) | > 100 µM (inactive) | –
COCN1C(=O)[C@@H]2CCCN2C(=O)c2ccc([N+](=O)[O-])cc21 | > 100 µM (inactive) | > 100 µM (inactive) | > 100 µM (inactive) | > 100 µM (inactive) | > 100 µM (inactive) | > 100 µM (inactive) | > 100 µM (inactive) | > 100 µM (inactive) | > 100 µM (inactive) | > 100 µM (inactive) | > 100 µM (inactive) | > 100 µM (inactive) | > 100 µM (inactive) | > 100 µM (inactive) | > 100 µM (inactive) | > 100 µM (inactive) | > 100 µM (inactive) | > 100 µM (inactive) | –
